ChEMBL document CHEMBL5113515, “The Discovery of GSK3640254, a Next-Generation Inhibitor of HIV-1 Maturation” (J Med Chem, 2022)

Key:
[1] = Drug concentration in overnight fasted Sprague-Dawley rat plasma at 5 mg/kg, po or 1 mg/kg, iv measured after 24 hrs; assay type: ADME, organism-based
CYP1A2 = biological target: T1, CYP1A2 (Homo sapiens, UniProt P05177); experiment: Induction of CYP1A2 in human hepatocyte; assay type: ADME, cell-based; details: hepatocytes
T1 sequence (P05177 whole entry): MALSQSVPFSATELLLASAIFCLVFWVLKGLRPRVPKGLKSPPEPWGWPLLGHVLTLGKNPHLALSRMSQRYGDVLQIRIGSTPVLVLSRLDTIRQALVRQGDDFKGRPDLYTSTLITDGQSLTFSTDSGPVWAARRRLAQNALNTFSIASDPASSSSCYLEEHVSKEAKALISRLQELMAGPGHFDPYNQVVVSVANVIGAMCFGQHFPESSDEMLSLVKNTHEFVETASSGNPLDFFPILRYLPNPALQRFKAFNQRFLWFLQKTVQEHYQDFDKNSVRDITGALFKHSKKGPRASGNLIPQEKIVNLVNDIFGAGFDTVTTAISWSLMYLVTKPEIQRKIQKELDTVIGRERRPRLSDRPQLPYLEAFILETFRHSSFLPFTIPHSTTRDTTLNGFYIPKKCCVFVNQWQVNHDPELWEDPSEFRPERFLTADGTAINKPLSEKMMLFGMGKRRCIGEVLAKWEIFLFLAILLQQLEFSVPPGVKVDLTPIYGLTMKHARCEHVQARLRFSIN

[2] = Volume of distribution at steady state in overnight fasted Beagle dog at 2 mg/kg, po or 1 mg/kg, iv; assay type: ADME, organism-based, Canis lupus familiaris; details: in vivo
CYP2B6 = biological target: T2, CYP2B6 (Homo sapiens, UniProt P20813); experiment: Induction of CYP2B6 in human hepatocyte; assay type: ADME, cell-based; details: hepatocytes
T2 sequence (P20813 whole entry): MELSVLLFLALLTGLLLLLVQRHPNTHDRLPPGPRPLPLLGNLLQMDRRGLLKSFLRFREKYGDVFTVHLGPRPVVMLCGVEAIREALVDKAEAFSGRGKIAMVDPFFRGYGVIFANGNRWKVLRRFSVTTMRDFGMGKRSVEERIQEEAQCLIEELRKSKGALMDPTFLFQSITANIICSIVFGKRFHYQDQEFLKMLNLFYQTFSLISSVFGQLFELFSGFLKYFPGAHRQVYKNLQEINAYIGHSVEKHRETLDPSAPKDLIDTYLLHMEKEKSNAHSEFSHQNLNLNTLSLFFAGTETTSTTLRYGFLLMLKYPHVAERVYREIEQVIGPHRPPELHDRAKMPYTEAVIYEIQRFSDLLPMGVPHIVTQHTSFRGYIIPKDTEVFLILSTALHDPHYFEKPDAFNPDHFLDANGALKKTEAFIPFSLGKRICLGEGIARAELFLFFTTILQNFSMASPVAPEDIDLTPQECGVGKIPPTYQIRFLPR

Cytochrome P450 2B6 = biological target: T3, Cytochrome P450 2B6 (Homo sapiens, UniProt P20813); experiment: Inhibition of CYP2B6 (unknown origin); assay type: ADME
T3 sequence (P20813 whole entry): T2 sequence (P20813 whole entry)

[3] = AUC(0 to t) in overnight fasted Sprague-Dawley rat at 5 mg/kg, po or 1 mg/kg, iv; assay type: ADME, organism-based; parameters: dose 5 mg/kg, route po; details: in vivo
[4] = Half life in overnight fasted Sprague-Dawley rat at 1 mg/kg, iv; assay type: ADME, organism-based; details: in vivo
Cytochrome P450 3A4 = Cytochrome P450 3A4 (Homo sapiens, UniProt P08684); experiment: Inhibition of CYP3A4 (unknown origin); assay type: ADME
Sequence of Cytochrome P450 3A4 (P08684 whole entry): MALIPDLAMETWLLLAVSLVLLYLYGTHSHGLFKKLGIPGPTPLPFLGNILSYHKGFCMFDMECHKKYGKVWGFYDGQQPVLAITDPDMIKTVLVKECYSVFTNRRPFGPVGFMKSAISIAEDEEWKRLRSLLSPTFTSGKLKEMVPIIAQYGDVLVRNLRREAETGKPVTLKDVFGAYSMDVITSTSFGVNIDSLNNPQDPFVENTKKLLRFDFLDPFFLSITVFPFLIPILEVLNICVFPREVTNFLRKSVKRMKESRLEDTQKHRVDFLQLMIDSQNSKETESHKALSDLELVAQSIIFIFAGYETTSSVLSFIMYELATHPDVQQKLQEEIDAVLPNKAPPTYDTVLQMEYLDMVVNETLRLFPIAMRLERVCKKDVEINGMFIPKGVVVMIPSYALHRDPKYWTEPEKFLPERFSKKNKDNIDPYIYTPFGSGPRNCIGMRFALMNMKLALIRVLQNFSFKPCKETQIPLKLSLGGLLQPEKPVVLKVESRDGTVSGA

Cytochrome P450 2C9 = Cytochrome P450 2C9 (Homo sapiens, UniProt P11712); experiment: Inhibition of CYP2C9 (unknown origin); assay type: ADME
Sequence of Cytochrome P450 2C9 (P11712 whole entry): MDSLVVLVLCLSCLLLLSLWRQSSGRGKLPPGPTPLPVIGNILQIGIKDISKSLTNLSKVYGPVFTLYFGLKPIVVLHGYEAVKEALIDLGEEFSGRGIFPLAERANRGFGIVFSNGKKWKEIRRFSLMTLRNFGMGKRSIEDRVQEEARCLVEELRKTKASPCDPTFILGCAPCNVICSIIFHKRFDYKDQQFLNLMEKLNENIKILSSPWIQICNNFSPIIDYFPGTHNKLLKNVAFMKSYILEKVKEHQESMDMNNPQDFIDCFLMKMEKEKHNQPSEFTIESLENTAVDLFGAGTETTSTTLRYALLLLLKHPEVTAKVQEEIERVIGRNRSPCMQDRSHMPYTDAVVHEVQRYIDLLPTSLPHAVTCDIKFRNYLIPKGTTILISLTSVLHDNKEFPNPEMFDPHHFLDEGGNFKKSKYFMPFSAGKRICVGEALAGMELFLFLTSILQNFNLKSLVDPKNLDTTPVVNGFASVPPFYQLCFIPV

[5] = Half life in human liver microsomes at […] measured upto 300 mins by LC-MS/MS analysis; assay type: ADME, Microsome
[6] = system: Human immunodeficiency virus 1; experiment: Antiviral activity against HIV1 wild type NL (4 to 3) infected in human MT2 cells measured after 4 to 5 days in presence of human serum by dual-luciferase reporter assay; assay type: functional, organism-based; details: mt2
[7] = Drug concentration in overnight fasted mouse plasma at 5 mg/kg, po or 1 mg/kg, iv measured after 24 hrs; assay type: ADME, organism-based
[8] = system: Human immunodeficiency virus 1; experiment: Antiviral activity against HIV1 wild type subtype B NL (4 to 3) transfected in human HEK293T cells by dual-luciferase reporter assay; assay type: functional, organism-based; details: Human immunodeficiency virus 1, HEK-293T
[9] = Oral bioavailability in overnight fasted Sprague-Dawley rat using spray-dried dispersion at 5 mg/kg; assay type: ADME, organism-based; details: in vivo
Cytochrome P450 2C8 = biological target: T4, Cytochrome P450 2C8 (Homo sapiens, UniProt P10632); experiment: Inhibition of CYP2C8 (unknown origin); assay type: ADME
T4 sequence (P10632 whole entry): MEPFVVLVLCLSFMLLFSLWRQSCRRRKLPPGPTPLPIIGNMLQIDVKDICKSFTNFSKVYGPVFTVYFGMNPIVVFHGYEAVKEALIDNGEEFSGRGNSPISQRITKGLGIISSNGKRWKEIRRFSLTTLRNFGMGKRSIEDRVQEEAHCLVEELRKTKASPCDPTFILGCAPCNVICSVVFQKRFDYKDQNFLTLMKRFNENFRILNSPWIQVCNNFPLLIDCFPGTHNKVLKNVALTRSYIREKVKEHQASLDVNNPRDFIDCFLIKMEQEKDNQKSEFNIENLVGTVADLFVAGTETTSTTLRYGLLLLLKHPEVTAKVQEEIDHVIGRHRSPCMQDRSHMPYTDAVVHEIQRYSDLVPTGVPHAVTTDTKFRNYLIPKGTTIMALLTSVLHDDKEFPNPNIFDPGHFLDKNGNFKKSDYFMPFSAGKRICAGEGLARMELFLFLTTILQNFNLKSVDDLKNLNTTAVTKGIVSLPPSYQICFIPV

[10] = system: Human immunodeficiency virus 1; experiment: Antiviral activity against HIV1 harbouring V362I/V370A mutant infected in human MT2 cells measured after 4 to 5 days by dual-luciferase reporter assay; assay type: functional, organism-based; details: Human immunodeficiency virus 1, MT2
[11] = Cmax in overnight fasted Sprague-Dawley rat at 5 mg/kg, po or 1 mg/kg, iv; assay type: ADME, organism-based; parameters: dose 5 mg/kg, route po; details: in vivo
Cytochrome P450 2D6 = Cytochrome P450 2D6 (Homo sapiens, UniProt P10635); experiment: Inhibition of CYP2D6 (unknown origin); assay type: ADME
Sequence of Cytochrome P450 2D6 (P10635 whole entry): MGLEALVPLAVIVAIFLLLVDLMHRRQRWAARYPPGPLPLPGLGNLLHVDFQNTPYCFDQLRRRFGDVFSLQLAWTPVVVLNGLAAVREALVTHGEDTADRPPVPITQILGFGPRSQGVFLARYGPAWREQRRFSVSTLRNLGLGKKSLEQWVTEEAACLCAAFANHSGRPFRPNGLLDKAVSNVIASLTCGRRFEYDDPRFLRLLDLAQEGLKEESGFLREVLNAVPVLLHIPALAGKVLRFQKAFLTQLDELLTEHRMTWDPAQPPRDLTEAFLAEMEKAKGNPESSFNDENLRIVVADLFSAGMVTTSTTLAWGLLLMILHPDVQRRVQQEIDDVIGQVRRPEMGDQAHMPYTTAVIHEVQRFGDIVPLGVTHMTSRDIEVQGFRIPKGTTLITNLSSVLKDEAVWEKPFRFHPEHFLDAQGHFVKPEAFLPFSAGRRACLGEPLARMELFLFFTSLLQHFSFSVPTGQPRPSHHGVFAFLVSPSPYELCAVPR

[12] = Half life in overnight fasted cynomolgus monkey at 1 mg/kg, iv; assay type: ADME, organism-based, Macaca fascicularis; details: in vivo
[13] = Plasma protein binding in human by ultracentrifugation; assay type: ADME, cell-free; details: read-out: PPB (converted)

C=C(C)[C@@H]1CC[C@]2(NCCN3CCS(=O)(=O)CC3)CC[C@]3(C)[C@H](CC[C@@H]4[C@@]5(C)CC=C(C6=CC[C@@](CF)(C(=O)O)CC6)C(C)(C)[C@@H]5CC[C@]43C)[C@@H]12 [FIPRAVIRIMAT]
concentration at 24 h [1]: 21.8 nM
EC50 (CYP1A2): > 5 µM
Vdss [2]: 0.49 L/kg
EC50 (CYP2B6): > 5 µM
IC50 (Cytochrome P450 2B6): > 13.3 µM
AUC(0-t) [3]: 7.4 µM·h
half-life [4]: 4 h
IC50 (Cytochrome P450 3A4): > 13.3 µM
IC50 (Cytochrome P450 2C9): > 13.3 µM
half-life [5]: > 24 h
EC50 [6]: 0.0139 µM
concentration at 24 h [7]: 179 nM
EC50 [8]: 0.0019 µM
bioavailability [9]: 40%
IC50 (Cytochrome P450 2C8): > 13.3 µM
EC50 [10]: 0.003 µM
Cmax [11]: 900 nM
IC50 (Cytochrome P450 2D6): > 13.3 µM
half-life [12]: 5.3 h
fraction unbound [13]: 0.14
